The term IC50 denotes the concentration that inhibits the measured activity by half.

This passage reports IC50 results from ChEMBL document CHEMBL3886684, “Azole compounds as PIM inhibitors” (2016).

Structures are written as SMILES.

The test addresses Serine/threonine-protein kinase pim-2 (Homo sapiens, UniProt Q9P1W9). Briefly: The phosphorylation of biotinylated-BAD (S112) peptide by full length recombinant Pim-1, Pim-2, or Pim-3 protein was detected with streptavidin:Allophycocyanin (APC) conjugate and a europium (Eu) labeled antibody directed against phosphorylated-BAD (S112). […] A reference compound was included on each assay plate in order to validate that plate; on.

Chain of Serine/threonine-protein kinase pim-2 (Q9P1W9 whole entry): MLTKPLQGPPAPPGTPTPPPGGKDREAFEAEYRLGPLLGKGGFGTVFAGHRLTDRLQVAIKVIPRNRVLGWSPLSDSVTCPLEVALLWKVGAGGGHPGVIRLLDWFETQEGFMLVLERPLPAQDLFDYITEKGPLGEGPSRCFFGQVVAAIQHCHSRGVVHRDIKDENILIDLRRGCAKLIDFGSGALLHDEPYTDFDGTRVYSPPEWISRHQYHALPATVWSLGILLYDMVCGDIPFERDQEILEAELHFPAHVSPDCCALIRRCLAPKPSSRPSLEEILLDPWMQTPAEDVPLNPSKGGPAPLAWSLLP

For the compound `CC(C)(C)Nc1nnc(-c2ccc3[nH]cc(C4=CCOCC4)c3c2)o1`, the IC50 turned out to be 0.738 µM.
